# Values joined by “and” are separate entries in the source; they are usually repeats but may differ in a detail not shown here. Equal values may be shown once.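 Briefly, cells in 96-well plates were exposed to five compound concentrations for 48 h, and endpoints were estimated by linear interpolation. At the GI50, growth is halved. TGI: concentration producing complete growth inhibition.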
# Key:
# Test in all cases: growth of human tumour cells (NCI), 48 h
# NCI-H23 lung = tested on: NCI-H23 lung
# PC-3 prostate = tested on: PC-3 prostate
# UACC-62 melanoma = tested on: UACC-62 melanoma
# NCI/ADR-RES ovarian = tested on: NCI/ADR-RES ovarian
# RPMI-8226 leukemia = tested on: RPMI-8226 leukemia
# HOP-92 NSCLC = tested on: HOP-92 NSCLC
# MDA-MB-435 = tested on: MDA-MB-435
# HCT-15 colon = tested on: HCT-15 colon
# OVCAR-3 ovarian = tested on: OVCAR-3 ovarian
# SF-268 CNS = tested on: SF-268 CNS
SMILES,TGI (NCI-H23 lung) [µM],TGI (PC-3 prostate) [µM],TGI (UACC-62 melanoma) [µM],TGI (NCI/ADR-RES ovarian) [µM],TGI (RPMI-8226 leukemia) [µM],TGI (HOP-92 NSCLC) [µM],TGI (MDA-MB-435) [µM],TGI (HCT-15 colon) [µM],TGI (OVCAR-3 ovarian) [µM],GI50 (HOP-92 NSCLC),GI50 (OVCAR-3 ovarian),TGI (SF-268 CNS) [µM],GI50 (UACC-62 melanoma) [nM]
Cc1cc2c(C)cc(=O)[nH]c2cc1N,> 100,> 100,> 100,> 100,> 100,> 100,> 100,> 100,> 100,–,–,–,–
CSC1CC2C(CC1(C)O)C2(C)C (stereo not given),> 100,–,> 100,–,> 100,> 100,–,> 100,> 100,25.5 µM and > 100 µM,38.5 µM and > 100 µM,> 100,–
O=C(Nc1cccc2cnccc12)c1cc2c(cc1Cl)Sc1nccn1S2(=O)=O,28.6,> 100,26,57.8,38.6,59.4,34.1,27.8,56.7,–,–,42.2,–
COc1ccc(Nc2nc3ccc(C(F)(F)F)cc3nc2C(=O)O)cc1OC,58.6,94.6,> 100,57.5,–,–,82.5,> 100,40.8,–,–,> 100,–
CCC12C[N+]3([O-])CCc4c([nH]c5ccccc45)C(C(=O)OC)(c4cc5c(cc4OC)N(C)C4C(O)(C(=O)OC)C(OC(C)=O)C6(CC)C=CCN7CCC54C76)CC(C3)C1O2 (stereo not given),8.49,–,16.2,–,1.43,21.3,–,24.8,1.3,–,–,28.8,–
CC(=O)OC[C@]1(C(=O)C(O)c2ccoc2)[C@H](C)CC[C@@]23COC(=O)C2=CCC[C@@H]31 (stereo not given in full),> 10,> 10,> 10,> 10,> 10,> 10,> 10,> 10,> 10,–,–,> 10,–
O=c1c2ncn(C3CC(O)C(CO)O3)c2nnn1Cc1ccccc1[N+](=O)[O-] (stereo not given),> 100,> 100,> 100,> 100,> 100,> 100,> 100,> 100,> 100,–,–,> 100,–
CCOC1CC(=O)c2c(Br)sc(Br)c21 (stereo not given),37.4,47.2,35.1,> 100,49.6,35.3,33.6,41.9,28.5,–,–,80.8,–
OC[C@@H](O)[C@H]1NC[C@@H](O)[C@H]1O,> 100,> 100,> 100,–,> 100,> 100,> 100,> 100,> 100,–,–,> 100,–
CC1(C)C(c2ccccc2)=[N+]([O-])C(C)(C)N1O,> 10,> 10,> 10,> 10,> 10,> 10,> 10,> 10,> 10,–,–,> 10,–
O=[N+]([O-])C(=C(N1CCCCC1)N1CCCCC1)/C(Cl)=C(\Cl)Br,41.2,60.3,28.1,91.8,44.2,53.4,61.7,54.1,81.4,–,–,87.9,–
COc1ccc(/C(=N/O)c2ccccc2-c2nc3ccccc3c(=O)n2-c2ccc(S(=O)(=O)Nc3ncccn3)cc2)cc1C,27.6,> 31.6,19.9,> 31.6,42.9,30.4,27.3,28.6,25.9,–,–,> 31.6,–
CCOC(=O)c1[nH]cc(C)c1-c1ccn(-c2ccccc2)c1,> 100,> 100,> 100,> 100,–,82.8,> 100,> 100,> 100,–,–,> 100,–
CC(=O)OC(C)c1cc2c(s1)C(=O)c1sccc1C2=O (stereo not given),0.546,14.2,3.05,5.08,4.78,16.7,–,2.38,8.71,–,–,4.09,1380
CC(=O)NS(=O)(=O)c1ccc(NC(=O)c2c3ccccc3nc3ccccc23)cc1,> 100,> 100,> 100,> 100,> 100,> 100,> 100,> 100,> 100,–,–,> 100,–
O=C(O)[C@@H]1C[C@@H](O)CN1C(=O)OCc1ccccc1,> 100,> 100,> 100,> 100,> 100,> 100,> 100,> 100,> 100,–,–,> 100,–
CC(C)(C)C1=Cc2cc3cc(C(C)(C)C)[nH]c(=O)c3cc2S(=O)(=O)N1,85.3,–,42,–,98.5,39.3,–,–,59.3,–,–,95.1,–
Nc1c2ccccc2nc2c1ccc1ncccc12,75.6,> 100,37.8,89.1,–,> 100,> 100,> 100,> 100,–,–,–,–
Cc1ccccc1OC(C)C(=O)NN1C(=O)CC(=O)N(c2ccc(Cl)cc2)C1=S (stereo not given),> 100,> 100,> 100,> 100,> 100,56.1,> 100,> 100,> 100,–,–,> 100,–
O=C1c2ccccc2CN1c1ccc(O)cc1,> 100,> 100,> 100,> 100,> 100,> 100,> 100,> 100,> 100,–,–,> 100,–
CCC1=CCC23C(=O)C=CC(=O)C2(C1)C(=O)c1cccc(OC)c1C3=O (stereo not given),46.4,28.4,37.2,59.5,33.4,29,30.8,37,27.2,–,–,36.2,–
NC(CSCc1ccccc1)C(=O)O (stereo not given),> 100,> 100,> 100,> 100,> 100,> 100,> 100,> 100,> 100,–,–,> 100,–

# — PubChem BioAssay (NCI)
